Assay [1] deals with methicillin-resistant Staphylococcus aureus. Nature of the assay: Gradient plate test (MIC) against methicillin-resistant Staphylococcus aureus. Type of assay: cell-based. The following applies: Staphylococcus aureus, read-out: minimum inhibitory concentration (MIC). Here is the method: The method used is essentially that described by Bryson and Szybalski in 1952 (Science 116:45-46). The inoculum treatment method used for penicillin resistant Staphylococci was reported by Godzeski et al in Antimicrobial Agents and Chemotherapy, May, 1969, pp. 547-554.
A standard Falcon square plastic petri dish is used. A layer of agar (10 ml.) is poured into one of the square dishes, the dish tipped 5 mm. off the horizontal, and the agar layer allowed to harden in this position. This bottom layer of agar contains the antibiotic, the serum, and/or other material to be tested. The medium is Difco Penassay Agar containing 2 percent agar. We routinely used 4 ml. of human or horse serum for "serum-inactivation" testing. […] Therefore, serum is routinely added only to the bottom layer.
After the bottom, slanted layer of agar medium has hardened, the plate is placed flat and another 10 ml. of medium added and allowed to harden.
The inoculum of resistant Staphylococci, as described, is prepared by diluting the water suspension 1/50 in 0.25 percent agar in sterile water or saline. For Gram negative organisms, an overnight broth culture is diluted 1/50 in the 0.25 percent agar-water. This dilution is thoroughly shaken to evenly suspend the bacteria. To streak the plate, we use a 1 ml. pipet containing an aliquot of the final […] agar dilution. After a little practice, a smooth even stroke of inoculum can be laid down very rapidly. The trick is in the smoothness of the streak--it must be accomplished uniformly and quickly.
After 24 hours incubation at 35°-37° C. the plates are read by simply measuring the length of bacterial growth as a percentage of the entire streak distance which is then converted to the percent of antibiotic concentration in the plate.
Average values of duplicate measurements are calculated and the M.I.C.'s reported are average of 2 streaks on the plate and from 2 to 3 duplicate plates. Eight streaks can be easily placed on each plate. If sharp end points are not obtained, the middle concentration between the beginning of inhibition of the streak to the end of growth is measured. The concentration of the antibiotic under examination is varied from plate to plate in a series as follows: […]
This method of screening penicillins and cephalosporins is quite satisfactory. Control plates containing penicillin and staphcillin or prostaphlin, or other control antibiotic, are used daily for the resistant staphylococcal activity screen. The gradient plate method has shown differences between antibiotics that were not apparent by any other methods of screening. […] We believe that the gradient plate screen is more sensitive to small differences between related antibiotics than other methods and pictures of the plates can provide a permanent record. The method also lends itself readily to modification of specific purposes--e.g., cross gradients.
The compounds listed below are examples of compounds useful in the method of this invention. After the compound name there is given in parentheses, where tested, the minimum inhibitory concentrations (MIC) in micrograms per milliliter (μg/ml) for the compound in the above described gradient plate procedure test against methicillin-resistant Staphylococcus aureus, (in the absence of blood serum/in the presence of 20 percent blood serum).
and pharmaceutically acceptable salts thereof. The abbreviation "s.z." means skip zones.

In assay [2] the test system is Staphylococcus aureus cultures. Nature of the assay: Modified Bauer-Kirby Disc Susceptibility Test (Example 11). Type of assay: cell-based. More on the design: zone of inhibition: dose or concentration left out as unconfirmed. The conditions noted are these: for zone of inhibition: Staphylococcus aureus; for Change 37°-30°: 30 mg Disc. As for the experimental part: This example exemplifies the antibiotic activity of 7-[2'-(3"-chloro-4"-fluorophenylthio)acetamido]cephalosporanic acid, a water soluble compound, described in Example 8, against various Staphylococcus aureus cultures, in a modified Bauer-Kirby Disc Susceptibility Test (Bauer, A. W., W. M. M. Kirby, J. C. Sherris, and M. Turck, 1966, Amer. J. Clin. Pathol. 45:493-496). In this test the cultures were incubated at both 37° C. or 30° C. […] 16, 1968, the heterogeneity of methicilllin-resistant S. aureus is manifested by incubation at 30° C.

The mark [3] stands for this setting: in the presence of 20 percent blood serum.
Setting [4] is: culture 3055 (penicillin sensitive), 30°, read-out: disc susceptibility (zone) at 30°.
The mark [5] stands for this setting: culture 3055 (penicillin sensitive), 37°, read-out: disc susceptibility (zone) at 37°.
The mark [6] stands for this setting: culture 3074 (methicillin sensitive, penicillinase producing), 30°, read-out: disc susceptibility (zone) at 30°.
The mark [7] stands for this setting: culture 3074 (methicillin sensitive, penicillinase producing), 37°, read-out: disc susceptibility (zone) at 37°.
Setting [8] is: culture 3125 (methicillin resistant), 30°, read-out: disc susceptibility (zone) at 30°.
Where [9] appears, read: culture 3125 (methicillin resistant), 37°, read-out: disc susceptibility (zone) at 37°.
Where [10] appears, read: culture 3130 (methicillin resistant), 30°, read-out: disc susceptibility (zone) at 30°.
The mark [11] stands for this setting: culture 3130 (methicillin resistant), 37°, read-out: disc susceptibility (zone) at 37°.
Setting [12] is: culture 3131 (methicillin resistant), 30°, read-out: disc susceptibility (zone) at 30°.
[13] abbreviates: culture 3131 (methicillin resistant), 37°, read-out: disc susceptibility (zone) at 37°.
The mark [14] stands for this setting: culture 3132 (methicillin resistant), 30°, read-out: disc susceptibility (zone) at 30°.
[15] abbreviates: culture 3132 (methicillin resistant), 37°, read-out: disc susceptibility (zone) at 37°.
[16] abbreviates: culture 3133 (methicillin resistant), 30°, read-out: disc susceptibility (zone) at 30°.
Setting [17] is: culture 3133 (methicillin resistant), 37°, read-out: disc susceptibility (zone) at 37°.
Setting [18] is: culture 3134 (methicillin resistant), 30°, read-out: disc susceptibility (zone) at 30°.
The mark [19] stands for this setting: culture 3134 (methicillin resistant), 37°, read-out: disc susceptibility (zone) at 37°.
Where [20] appears, read: culture 3135 (methicillin resistant), 30°, read-out: disc susceptibility (zone) at 30°.
Setting [21] is: culture 3135 (methicillin resistant), 37°, read-out: disc susceptibility (zone) at 37°.
[22] abbreviates: culture 3136 (methicillin resistant), 30°, read-out: disc susceptibility (zone) at 30°.
Where [23] appears, read: culture 3136 (methicillin resistant), 37°, read-out: disc susceptibility (zone) at 37°.
Setting [24] is: culture 3137 (methicillin resistant), 30°, read-out: disc susceptibility (zone) at 30°.
Where [25] appears, read: culture 3137 (methicillin resistant), 37°, read-out: disc susceptibility (zone) at 37°.
The mark [26] stands for this setting: culture 3138 (methicillin resistant), 30°, read-out: disc susceptibility (zone) at 30°.
The mark [27] stands for this setting: culture 3138 (methicillin resistant), 37°, read-out: disc susceptibility (zone) at 37°.
Where [28] appears, read: culture 3139 (methicillin resistant), 30°, read-out: disc susceptibility (zone) at 30°.
Where [29] appears, read: culture 3139 (methicillin resistant), 37°, read-out: disc susceptibility (zone) at 37°.
The mark [30] stands for this setting: culture 3140 (methicillin resistant), 30°, read-out: disc susceptibility (zone) at 30°.
The mark [31] stands for this setting: culture 3140 (methicillin resistant), 37°, read-out: disc susceptibility (zone) at 37°.
[32] abbreviates: culture H232 (methicillin sensitive, penicillinase producing), 30°, read-out: disc susceptibility (zone) at 30°.
The mark [33] stands for this setting: culture H232 (methicillin sensitive, penicillinase producing), 37°, read-out: disc susceptibility (zone) at 37°.

≈ marks a conversion by molar mass, not a printed value. Like-named read-outs stand apart in the source and are kept apart here.

`CC(=O)OCC1=C(C(=O)O)N2C(=O)C(NC(=O)CSc3ccc(Cl)c(Cl)c3)C2SC1` (stereo not drawn) [Example 1, 7-(3,4-dichlorophenylthioacetamido)cephalosporanic acid]: the MIC amounted to 1 µg/mL (≈ 2.04 µM) in assay [1] (in the absence of blood serum) and 1.7 µg/mL in assay [1] (setting [3]).
For the compound `CC(=O)OCC1=C(C(=O)O)N2C(=O)C(NC(=O)CSc3cc(Cl)cc(Cl)c3)C2SC1` (stereo not drawn) [Example 3, 7-(3,5-Dichlorophenylthioacetamido)-cephalosporanic acid], the MIC in assay [1] (in the absence of blood serum) came out at 2 µg/mL (≈ 4.07 µM); in assay [1] (setting [3]), 8.7 µg/mL. Moreover, the zone of inhibition in assay [2] (setting [4]) was more than 35 mm; in assay [2] (setting [5]), more than 35 mm; in assay [2] (setting [6]) it was 35 mm; in assay [2] (setting [7]), 35 mm; in assay [2] (setting [8]) it was 37 mm; in assay [2] (setting [9]), 34.2 mm. For the same compound, the zone of inhibition in assay [2] (setting [10]) stood at 33.6 mm; in assay [2] (setting [11]) it was 32 mm; in assay [2] (setting [12]) it was 31.8 mm; in assay [2] (setting [13]), 30.6 mm; in assay [2] (setting [14]) it was 32.6 mm; in assay [2] (setting [15]) it was 31 mm. Besides, the zone of inhibition in assay [2] (setting [16]) is 30.8 mm; in assay [2] (setting [17]), 29 mm; in assay [2] (setting [18]) it was 33 mm; in assay [2] (setting [19]), 29.8 mm; in assay [2] (setting [20]), 29.6 mm; in assay [2] (setting [21]) it was 28.3 mm. Besides, the zone of inhibition in assay [2] (setting [22]) came to 29.8 mm; in assay [2] (setting [23]) it was 35 mm; in assay [2] (setting [24]) it was 26 mm; in assay [2] (setting [25]), 26.2 mm; in assay [2] (setting [26]), 29.4 mm; in assay [2] (setting [27]), 27 mm. Besides, the zone of inhibition in assay [2] (setting [28]) was 32.2 mm; in assay [2] (setting [29]) it was 36 mm; in assay [2] (setting [30]), 30.2 mm; in assay [2] (setting [31]) it was 28.8 mm; in assay [2] (setting [32]), 32.6 mm; in assay [2] (setting [33]), 34.1 mm. In addition, the “Change 37°-30°” value in assay [2] (culture 3074) was 0 mm; in assay [2] (culture 3125), “+2.8 mm”; in assay [2] (culture 3130), “+1.6 mm”; in assay [2] (culture 3131) it was “+1.2 mm”; in assay [2] (culture 3132), “+1.6 mm”; in assay [2] (culture 3133) it was “+1.8 mm”. Also, the “Change 37°-30°” value is given as “+3.2 mm” in assay [2] (culture 3134); “+1.3 mm” in assay [2] (culture 3135); “+5.2 mm” in assay [2] (culture 3136); -0.2 mm in assay [2] (culture 3137); “+2.4 mm” in assay [2] (culture 3138); -3.8 mm in assay [2] (culture 3139). The “Change 37°-30°” value is “+1.4 mm” in assay [2] (culture 3140) and -1.5 mm in assay [2] (culture H232).
For `CC(=O)OCC1=C(C(=O)O)N2C(=O)[C@@H](NC(=O)Cc3cccs3)[C@H]2SC1` [Cephalothin, cephalothin, reference compound], the zone of inhibition in assay [2] (setting [4]) was more than 35 mm; in assay [2] (setting [5]), more than 35 mm; in assay [2] (setting [6]), 32.1 mm; in assay [2] (setting [7]), 31.8 mm; in assay [2] (setting [8]) it was 33.8 mm; in assay [2] (setting [9]), 33.4 mm. Also, the zone of inhibition in assay [2] (setting [10]) was determined as 20.2 mm; in assay [2] (setting [11]) it was 32.8 mm; in assay [2] (setting [12]), 16.6 mm; in assay [2] (setting [13]), 29.6 mm; in assay [2] (setting [14]), 17.6 mm; in assay [2] (setting [15]), 28.6 mm. In addition, the zone of inhibition in assay [2] (setting [16]) was determined as 12.8 mm; in assay [2] (setting [17]), 28.8 mm; in assay [2] (setting [18]), 12.1 mm; in assay [2] (setting [19]), 27.8 mm; in assay [2] (setting [20]), 11.8 mm; in assay [2] (setting [21]) it was 28 mm. Also, the zone of inhibition in assay [2] (setting [22]) was found to be 20.8 mm; in assay [2] (setting [23]), 35.6 mm; in assay [2] (setting [24]) it was 0 mm; in assay [2] (setting [25]), 17.8 mm; in assay [2] (setting [26]), 11.3 mm; in assay [2] (setting [27]) it was 26.2 mm. The zone of inhibition is 27 mm in assay [2] (setting [28]); 32 mm in assay [2] (setting [29]); 10.4 mm in assay [2] (setting [30]); 29.7 mm in assay [2] (setting [31]); 33.2 mm in assay [2] (setting [32]); 33.4 mm in assay [2] (setting [33]). The “Change 37°-30°” value in assay [2] (culture 3074) is on record as “+0.3 mm”; in assay [2] (culture 3130), -12.6 mm; in assay [2] (culture 3131), -13.0 mm; in assay [2] (culture 3132) it was -11.0 mm; in assay [2] (culture 3133) it was -16.0 mm; in assay [2] (culture 3134), -15.7 mm. Also, the “Change 37°-30°” value in assay [2] (culture 3135) is recorded as -16.2 mm; in assay [2] (culture 3136) it was -14.8 mm; in assay [2] (culture 3137), more than 17.8 mm; in assay [2] (culture 3138), -14.9 mm; in assay [2] (culture 3139), -5.0 mm; in assay [2] (culture 3140), -13.3 mm. Besides, the “Change 37°-30°” value in assay [2] (culture H232) is -0.2 mm.
Consider `CC(=O)OCC1=C(C(=O)O)N2C(=O)C(NC(=O)CSc3cc(Cl)ccc3Cl)C2SC1` (stereo not drawn) [Example 2, 7-(2,5-Dichlorophenylthioacetamido)-cephalosporanic acid], for which the MIC was 0.8 µg/mL (≈ 1.63 µM) in assay [1] (in the absence of blood serum) and 1 µg/mL in assay [1] (setting [3]).

For the origin of these results see patent US4175125A, “Method for treating methicillin resistant staphylococcus aureus” (Eli Lilly and Company, priority 1978, dated 1979).
